Results published in the supplement of paper PMC10307832.

Key:
Assay in all cases: relative viability (nuclei count vs DMSO), 5 days (fraction); higher = more cells survive
NCI-H1792 = tested on: NCI-H1792
In short: (§1)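 Dosing by pin tool came one day after lung cancer cell lines were seeded in 1536-well plates, using either one drug or a fixed anchor-drug dose plus five library-drug doses (not always all listed) in √10 steps. After 5 days, nuclei were counted on 4× images. Relative viability is treated-well nuclei count divided by vehicle-well nuclei count, and values are medians of duplicate plates.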

EKVX = tested on: EKVX
In short: as §1

EMC-BAC-2 = tested on: EMC-BAC-2
In short: as §1

ChaGo-K-1 = tested on: ChaGo-K-1
In short: as §1

SK-MES-1 = tested on: SK-MES-1
In short: as §1

NCI-H520 = tested on: NCI-H520
In short: as §1

NCI-H1975 = tested on: NCI-H1975
In short: as §1

PC-3 [JPC-3] = tested on: PC-3 [JPC-3]
In short: as §1

NCI-H1755 = tested on: NCI-H1755
In short: as §1

NCI-H1563 = tested on: NCI-H1563
In short: as §1

NCI-H596 = tested on: NCI-H596
In short: as §1

LK-2 = tested on: LK-2
In short: as §1

H3255 = tested on: H3255
In short: as §1

LOU-NH91 = tested on: LOU-NH91
In short: as §1

NCI-H1666 = tested on: NCI-H1666
In short: as §1

HCC-366 = tested on: HCC-366
In short: as §1

COR-L 105 = tested on: COR-L 105
In short: as §1

A-427 = tested on: A-427
In short: as §1

NCI-H441 = tested on: NCI-H441
In short: as §1

NCI-H1734 = tested on: NCI-H1734
In short: as §1

NCI-H2170 = tested on: NCI-H2170
In short: as §1

NCI-H23 = tested on: NCI-H23
In short: as §1

Structure (SMILES): C=C1C(=O)O[C@@H](CCCCCCCC)[C@@H]1C(=O)O [C-75] + C[C@@H](Oc1cc(-c2cnn(C3CCNCC3)c2)cnc1N)c1c(Cl)ccc(F)c1Cl [Crizotinib] (partner 1 µM)
- relative viability (NCI-H1792; first compound 0.08 µM): 1.01
- relative viability (NCI-H1792; first compound 0.253 µM): 0.918
- relative viability (NCI-H1792; first compound 0.8 µM): 0.919
- relative viability (NCI-H1792; first compound 2.53 µM): 0.857
- relative viability (NCI-H1792; first compound 8 µM): 0.879
- relative viability (EKVX; first compound 0.08 µM): 1.01
- relative viability (EKVX; first compound 0.253 µM): 0.983
- relative viability (EKVX; first compound 0.8 µM): 0.897
- relative viability (EKVX; first compound 2.53 µM): 0.85
- relative viability (EKVX; first compound 8 µM): 0.893
- relative viability (EMC-BAC-2; first compound 0.08 µM): 0.752
- relative viability (EMC-BAC-2; first compound 0.253 µM): 0.731
- relative viability (EMC-BAC-2; first compound 0.8 µM): 0.744
- relative viability (EMC-BAC-2; first compound 2.53 µM): 0.692
- relative viability (EMC-BAC-2; first compound 8 µM): 0.704
- relative viability (ChaGo-K-1; first compound 0.08 µM): 1.03
- relative viability (ChaGo-K-1; first compound 0.253 µM): 0.983
- relative viability (ChaGo-K-1; first compound 0.8 µM): 1.12
- relative viability (ChaGo-K-1; first compound 2.53 µM): 0.818
- relative viability (ChaGo-K-1; first compound 8 µM): 1.08
- relative viability (SK-MES-1; first compound 0.08 µM): 1.04
- relative viability (SK-MES-1; first compound 0.253 µM): 0.997
- relative viability (SK-MES-1; first compound 0.8 µM): 0.953
- relative viability (SK-MES-1; first compound 8 µM): 0.941
- relative viability (NCI-H520; first compound 0.08 µM): 0.607
- relative viability (NCI-H520; first compound 0.253 µM): 0.841
- relative viability (NCI-H520; first compound 0.8 µM): 0.673
- relative viability (NCI-H520; first compound 2.53 µM): 0.706
- relative viability (NCI-H520; first compound 8 µM): 0.651
- relative viability (NCI-H1975; first compound 0.08 µM): 0.987
- relative viability (NCI-H1975; first compound 0.253 µM): 0.929
- relative viability (NCI-H1975; first compound 0.8 µM): 0.908
- relative viability (NCI-H1975; first compound 2.53 µM): 0.773
- relative viability (NCI-H1975; first compound 8 µM): 0.935
- relative viability (PC-3 [JPC-3]; first compound 0.08 µM): 1.01
- relative viability (PC-3 [JPC-3]; first compound 0.253 µM): 0.99
- relative viability (PC-3 [JPC-3]; first compound 0.8 µM): 0.98
- relative viability (PC-3 [JPC-3]; first compound 2.53 µM): 1.05
- relative viability (PC-3 [JPC-3]; first compound 8 µM): 1.14
- relative viability (NCI-H1755; first compound 0.08 µM): 0.87
- relative viability (NCI-H1755; first compound 0.253 µM): 0.853
- relative viability (NCI-H1755; first compound 0.8 µM): 0.836
- relative viability (NCI-H1755; first compound 2.53 µM): 0.541
- relative viability (NCI-H1755; first compound 8 µM): 0.824
- relative viability (NCI-H1563; first compound 0.08 µM): 0.801
- relative viability (NCI-H1563; first compound 0.253 µM): 0.909
- relative viability (NCI-H1563; first compound 0.8 µM): 0.865
- relative viability (NCI-H1563; first compound 2.53 µM): 0.826
- relative viability (NCI-H1563; first compound 8 µM): 0.931
- relative viability (NCI-H596; first compound 0.08 µM): 1.01
- relative viability (NCI-H596; first compound 0.253 µM): 0.937
- relative viability (NCI-H596; first compound 0.8 µM): 0.794
- relative viability (NCI-H596; first compound 2.53 µM): 0.875
- relative viability (NCI-H596; first compound 8 µM): 1.03
- relative viability (LK-2; first compound 0.08 µM): 0.239
- relative viability (LK-2; first compound 0.253 µM): 0.208
- relative viability (LK-2; first compound 0.8 µM): 0.231
- relative viability (LK-2; first compound 2.53 µM): 0.239
- relative viability (LK-2; first compound 8 µM): 0.246
- relative viability (H3255; first compound 0.08 µM): 0.909
- relative viability (H3255; first compound 0.253 µM): 0.932
- relative viability (H3255; first compound 0.8 µM): 0.875
- relative viability (H3255; first compound 2.53 µM): 0.841
- relative viability (H3255; first compound 8 µM): 0.843
- relative viability (LOU-NH91; first compound 0.08 µM): 0.743
- relative viability (LOU-NH91; first compound 0.253 µM): 0.696
- relative viability (LOU-NH91; first compound 0.8 µM): 0.726
- relative viability (LOU-NH91; first compound 2.53 µM): 0.682
- relative viability (LOU-NH91; first compound 8 µM): 0.742
- relative viability (NCI-H1666; first compound 0.08 µM): 1.19
- relative viability (NCI-H1666; first compound 0.253 µM): 1.21
- relative viability (NCI-H1666; first compound 0.8 µM): 0.928
- relative viability (NCI-H1666; first compound 2.53 µM): 0.847
- relative viability (NCI-H1666; first compound 8 µM): 0.614
- relative viability (HCC-366; first compound 0.08 µM): 0.508
- relative viability (HCC-366; first compound 0.253 µM): 0.76
- relative viability (HCC-366; first compound 0.8 µM): 0.5
- relative viability (HCC-366; first compound 8 µM): 0.509
- relative viability (COR-L 105; first compound 0.08 µM): 0.707
- relative viability (COR-L 105; first compound 0.253 µM): 0.808
- relative viability (COR-L 105; first compound 0.8 µM): 0.949
- relative viability (COR-L 105; first compound 2.53 µM): 0.921
- relative viability (COR-L 105; first compound 8 µM): 0.566
- relative viability (A-427; first compound 0.08 µM): 0.929
- relative viability (A-427; first compound 0.253 µM): 1.11
- relative viability (A-427; first compound 0.8 µM): 0.883
- relative viability (A-427; first compound 2.53 µM): 0.69
- relative viability (A-427; first compound 8 µM): 0.898
- relative viability (NCI-H441; first compound 0.08 µM): 0.857
- relative viability (NCI-H441; first compound 0.253 µM): 0.762
- relative viability (NCI-H441; first compound 0.8 µM): 0.556
- relative viability (NCI-H441; first compound 2.53 µM): 0.46
- relative viability (NCI-H441; first compound 8 µM): 0.585
- relative viability (NCI-H1734; first compound 0.08 µM): 0.692
- relative viability (NCI-H1734; first compound 0.253 µM): 0.624
- relative viability (NCI-H1734; first compound 0.8 µM): 0.618
- relative viability (NCI-H1734; first compound 2.53 µM): 0.557
- relative viability (NCI-H1734; first compound 8 µM): 0.69
- relative viability (NCI-H2170; first compound 0.08 µM): 1.25
- relative viability (NCI-H2170; first compound 0.253 µM): 1.28
- relative viability (NCI-H2170; first compound 0.8 µM): 1.23
- relative viability (NCI-H2170; first compound 2.53 µM): 1.07
- relative viability (NCI-H2170; first compound 8 µM): 1.24
- relative viability (NCI-H23; first compound 0.08 µM): 0.509
- relative viability (NCI-H23; first compound 0.253 µM): 0.579
- relative viability (NCI-H23; first compound 0.8 µM): 0.522
- relative viability (NCI-H23; first compound 2.53 µM): 0.507
- relative viability (NCI-H23; first compound 8 µM): 0.534
